Data on seven compounds can be found in PubChem BioAssay (NCI).

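Each compound was tested at five concentrations against cells in 96-well plates for 48 hours. GI50 is the concentration that inhibits growth by half. TGI denotes the concentration required for complete inhibition of growth.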

Holding throughout (assay): inhibition of tumour cell growth, NCI panel, 48 h
The subject of assay [1] is A549 NSCLC.
Assay [2] relates to HOP-92 NSCLC.
Assay [3] has as its system K-562 leukemia.
The subject of assay [4] is SF-268 CNS.
Assay [5] concerns SF-539 CNS.
Assay [6] deals with SK-MEL-5 melanoma.
In assay [7] the test system is SNB-75 CNS.
For assay [8], the system named is UACC-257 melanoma.

In the case of `O=C(Nc1ccccc1Cl)c1cccc(NC2=C(Cl)C(=O)N(Cc3ccccc3)C2=O)c1`, the GI50 in assay [1] was 49.3 µM; in assay [2], 15 µM; in assay [3] it was 2.67 µM; in assay [4] it was 18.6 µM; in assay [5], 26.7 µM; in assay [6], 14.1 µM. Moreover, the GI50 in assay [7] was 3.55 µM; in assay [8] it was 24.3 µM. Moreover, the TGI is more than 100 µM in assay [1]; more than 100 µM in assay [2]; 35.3 µM in assay [3]; 58.6 µM in assay [4]; 94.6 µM in assay [5]; 51.4 µM in assay [6]. In addition, the TGI in assay [7] and in assay [8] was more than 100 µM each time.
For `COc1cccc(CC(C)=C(c2ccc(OCCCN(C)C)cc2)c2ccc(OCCCN(C)C)cc2)c1`, the GI50 was 0.557 µM in assay [1]; 0.747 µM in assay [2]; 0.484 µM in assay [3]; 0.683 µM in assay [4]; 0.437 µM in assay [5]; 0.57 µM in assay [6]. The figures for the GI50 in assay [7] and in assay [8] were 0.619 µM and 0.498 µM, respectively. Moreover, the TGI was 1.44 µM in assay [1]; 3.79 µM in assay [2]; 1.16 µM in assay [3]; 2.05 µM in assay [4]; 0.801 µM in assay [5]; 1.31 µM in assay [6]. Also, the TGI in assay [7] is 1.77 µM; in assay [8] it was 1.09 µM.
Take `Nc1n[nH]c2ccc([C@@H]3Nc4cc5[nH]ncc5cc4[C@H]4C5CCC(C5)[C@@H]34)cc12` (stereo partly drawn): the GI50 is 0.584 µM in assay [1]; 4.59 µM in assay [2]; 0.315 µM in assay [3]; 1.71 µM in assay [4]; 0.269 µM in assay [5]; 0.493 µM in assay [6]. For the same compound, the results for the GI50 in assay [7] and in assay [8] were 0.27 µM and 14.9 µM, respectively. For the same compound, the TGI in assay [1] is more than 100 µM; in assay [2], more than 46.2 µM; in assay [3], more than 100 µM; in assay [4], more than 100 µM; in assay [5], 3.17 µM; in assay [6], 6.57 µM. Besides, the figures for the TGI in assay [7] and in assay [8] were 22.9 µM and more than 78.4 µM, respectively.
For `COc1cccc(C2C(C#N)=C(N)Oc3c2ccc2ccccc32)c1` (stereo not drawn), the GI50 in assay [1] is 0.0232 µM; in assay [2], less than 0.0271 µM; in assay [3] it was less than 0.01 µM; in assay [4], 0.0315 µM; in assay [5], 0.0166 µM; in assay [6], less than 0.0185 µM. Moreover, the values for the GI50 in assay [7] and in assay [8] were less than 0.0151 µM and 0.901 µM, respectively. In addition, the TGI in assay [1] is 17.6 µM; in assay [2] it was 7.78 µM; in assay [3], more than 44 µM; in assay [4] it was 10.5 µM; in assay [5] it was 0.0695 µM; in assay [6], 0.108 µM. Also, the TGI in assay [7] turned out to be 15.1 µM; in assay [8], 32.8 µM.
As to `O=C(NN1C(=O)CSC1c1ccc(F)cc1)C(O)c1ccccc1` (stereo not drawn), the GI50 in assay [1] was 90.9 µM; in assay [2], more than 100 µM; in assay [3], 43.3 µM; in assay [4] it was more than 100 µM; in assay [5], more than 100 µM; in assay [6] it was more than 100 µM. The figures for the GI50 in assay [7] and in assay [8] were 33.4 µM and more than 100 µM, respectively. In addition, the TGI in assay [1], in assay [2], in assay [3], in assay [4], in assay [5] and in assay [6] was more than 100 µM in each case. The TGI in assay [7] and in assay [8] was more than 100 µM each time.
With `NCCC(=O)NC(Cc1cnc[nH]1)C(=O)O` (stereo not drawn), the TGI in assay [1], in assay [2], in assay [3], in assay [4], in assay [5] and in assay [6] was more than 100 µM each time. Moreover, the TGI in assay [7] and in assay [8] was more than 100 µM in each case.
On to `NC(=O)c1cccc(-c2cc(C(N)=O)ccc2Cl)c1`, for which the GI50 in assay [1] was 12.4 µM; in assay [3], 0.36 µM; in assay [4] it was 5.68 µM; in assay [5] it was 1.65 µM; in assay [6] it was 3.62 µM; in assay [7], 1.1 µM. Also, the GI50 in assay [8] is 25.9 µM. Moreover, the TGI in assay [1] was more than 100 µM; in assay [2], 6.99 µM; in assay [3], more than 100 µM; in assay [4] it was more than 100 µM; in assay [5] it was 4.85 µM; in assay [6], 14.8 µM. Besides, the TGI in assay [7] is 5.5 µM; in assay [8] it was more than 100 µM.
